Assay results as given in PMC11323243, “Novel Inhibitors of SARS-CoV-2 RNA Identified through Virtual Screening” (Journal of Chemical Information and Modeling, 2024).
“Also recorded” adds a separate entry of the source.

Key:
[1] = Cell viability (MTT) after 3 days of exposure; type: cell-based; conditions: African green monkey, Vero E6 cells, read-out: CC50, concentration reducing cell viability by 50%
[2] = test system: −1PRF element of SARS-CoV-2; test: Dual-luciferase assay measuring frameshift efficiency; type: cell-based; conditions: Vero E6 cells; for effect on frameshift efficiency (in words): dual-luciferase assay; for reduction of frameshift efficiency: single nontoxic dose
[3] = test system: Omicron (BA.1) SARS-CoV-2; test: Antiviral activity, plaque reduction assay on Vero E6 cells; type: cell-based; conditions: CC50/EC50, Vero E6 cells
[4] = test system: −1PRF element of SARS-CoV-2; conditions: previously identified; cited from earlier work

Structure (SMILES): Cc1nc(CN)cc(N2CCC(C(O)c3nccn3C)CC2)n1 (centres unmarked) [Compound 32807865]
- CC50 at 3 days [1]: > 100 µM

Structure (SMILES): OC1CCCN(C2CCN(Cc3ncc[nH]3)CC2)C1 (centres unmarked) [Compound 21256088]
- CC50 at 3 days [1]: > 100 µM

Structure (SMILES): OCC1CN(Cc2cc3c(cc2Cl)OCO3)CC1CN1CCCCCC1 (centres unmarked) [Compound 269]
- effect on frameshift efficiency (in words) [2]: nonsignificant reduction of frameshift efficiency; also recorded: reduction in frameshift, though not statistically significant

Structure (SMILES): OC1CN(Cc2cccc3cc[nH]c23)CCN(c2ccncc2)C1 (centres unmarked) [Compound 229]
- CC50 at 3 days [1]: 93 µM
- SI, selective index [3]: 3.47

Structure (SMILES): NCCc1ccc(CN2CCC(O)(c3cccc(C(F)(F)F)c3)CC2)cc1 [Compound 188]
- CC50 at 3 days [1]: 80.6 µM
- SI, selective index [3]: 4.69

Structure (SMILES): CCNCC1CCN(c2c(F)cc3c(=O)c(C(=O)O)cn(CC)c3c2F)C1 (centres unmarked) [merafloxacin]
- inhibition of the −1PRF of SARS-CoV-2 (in words) [4]: specific inhibition of the −1PRF of SARS-CoV-2

Structure (SMILES): Clc1ccc2c(N3CCN(CCCN4CCN(c5ccnc6cc(Cl)ccc56)CC4)CC3)ccnc2c1 [piperaquine, reference compound]
- CC50 at 3 days [1]: 5.66 µM
- SI, selective index [3]: 0.49

Structure (SMILES): Cc1cc2c(cc1CN1CC(CO)C(CN3CCCCCC3)C1)OCCO2 (centres unmarked) [Compound 194]
- CC50 at 3 days [1]: > 100 µM
- effect on frameshift efficiency (in words) [2]: significant reduction in frameshift efficiency
- reduction of frameshift efficiency [2]: 23%
- SI, selective index [3]: >3.46

Structure (SMILES): Cc1cc2c(cc1CN1CC(CO)C(CN3CCN(C)CC3)C1)OCCO2 (centres unmarked) [Compound 782]
- effect on frameshift efficiency (in words) [2]: significant and improved reduction of frameshift efficiency compared to 194; also recorded: dose-dependent
- reduction of frameshift efficiency [2]: 38%

Structure (SMILES): CN[C@@H]1[C@@H](O)[C@@H](O[C@@H]2[C@@H](O)[C@H](O[C@H]3O[C@H]([C@@H](C)O)[C@@H](O)[C@H](O)[C@H]3N)[C@@H](N)C[C@H]2N)OC[C@]1(C)O [geneticin]
- inhibition of the −1PRF of SARS-CoV-2 (in words) [4]: specific inhibition of the −1PRF of SARS-CoV-2
